From PMC9301957 (ACS Omega, 2022)

Legend:
AKT = AKT ELISA, downstream signaling pathway in HCT-116 cells; type: cell-based, human; settings: compound at its IC50, untreated control 45.39 ng/mL
mTOR = mTOR ELISA, downstream signaling pathway in HCT-116 cells; type: cell-based, human; settings: compound at its IC50, untreated control 86.39 ng/mL
PI3K = PI3K ELISA, downstream signaling pathway in HCT-116 cells; type: cell-based, human; settings: compound at its IC50, untreated control 6.64 ng/mL
EGFR = EGFR (Homo sapiens, UniProt P00533); experiment: EGFR protein kinase; type: biochemical; settings: mean ± SD of three replicates; for inhibition at 10 µM: read-out: autophosphorylation percentage inhibition at conc (10 μM), 10 μM
Sequence of EGFR (P00533 25-1210): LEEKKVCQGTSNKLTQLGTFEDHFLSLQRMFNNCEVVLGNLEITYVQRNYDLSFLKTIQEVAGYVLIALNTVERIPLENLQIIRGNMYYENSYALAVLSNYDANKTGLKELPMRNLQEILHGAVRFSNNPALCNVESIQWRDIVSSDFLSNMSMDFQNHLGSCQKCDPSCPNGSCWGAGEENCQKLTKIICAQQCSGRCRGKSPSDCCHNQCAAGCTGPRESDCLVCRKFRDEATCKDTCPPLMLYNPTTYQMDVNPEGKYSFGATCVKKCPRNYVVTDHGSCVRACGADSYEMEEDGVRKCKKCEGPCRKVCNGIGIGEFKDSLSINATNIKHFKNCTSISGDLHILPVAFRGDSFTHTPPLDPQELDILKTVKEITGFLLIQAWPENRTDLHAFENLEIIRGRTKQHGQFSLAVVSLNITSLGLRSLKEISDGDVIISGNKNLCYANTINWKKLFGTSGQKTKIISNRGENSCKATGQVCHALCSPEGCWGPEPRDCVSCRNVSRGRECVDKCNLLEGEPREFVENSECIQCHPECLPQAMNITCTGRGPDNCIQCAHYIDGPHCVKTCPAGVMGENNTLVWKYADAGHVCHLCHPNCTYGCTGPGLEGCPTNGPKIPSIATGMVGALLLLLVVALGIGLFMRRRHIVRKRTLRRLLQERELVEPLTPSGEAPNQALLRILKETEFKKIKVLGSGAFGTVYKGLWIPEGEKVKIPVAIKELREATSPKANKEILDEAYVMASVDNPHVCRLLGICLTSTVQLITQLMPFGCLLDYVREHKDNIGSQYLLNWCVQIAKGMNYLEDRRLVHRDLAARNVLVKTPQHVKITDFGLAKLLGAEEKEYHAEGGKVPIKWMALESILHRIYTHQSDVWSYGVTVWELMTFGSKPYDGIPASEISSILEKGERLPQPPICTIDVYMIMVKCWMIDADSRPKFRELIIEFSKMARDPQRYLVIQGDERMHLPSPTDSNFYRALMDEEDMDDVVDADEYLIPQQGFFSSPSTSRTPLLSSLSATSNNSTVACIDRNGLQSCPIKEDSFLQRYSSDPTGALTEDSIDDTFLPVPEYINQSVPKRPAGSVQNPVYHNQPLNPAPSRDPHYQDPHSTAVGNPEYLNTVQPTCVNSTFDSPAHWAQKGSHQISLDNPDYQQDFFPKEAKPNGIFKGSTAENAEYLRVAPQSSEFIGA

Compound	AKT concentration in treated HCT-116 cells (AKT) [ng/mL]	mTOR concentration in treated HCT-116 cells (mTOR) [ng/mL]	PI3K concentration in treated HCT-116 cells (PI3K) [ng/mL]	autophosphorylation percentage inhibition at conc (10 μM) (EGFR) [%]	inhibition at 10 µM (EGFR) [%]
Cc1cc(C)n(-c2nc(Nc3ccc(Br)cc3)nc(N3CCOCC3)n2)n1 [Compound 4f, N-(4-Bromophenyl)-4-(3,5-dimethyl-1H-pyrazol-1-yl)-6-morpholino-1,3,5-triazin-2-amine]	12.35	34.36	1.24		
Cc1cc(C)n(-c2nc(Nc3ccc(Cl)cc3)nc(-n3nc(C)cc3C)n2)n1 [Compound 5c, N-(4-chlorophenyl)-4,6-bis(3,5-dimethyl-1H-pyrazol-1-yl)-1,3,5-triazin-2-amine]				69.68 ± 2.01	70
COc1ccc(Nc2nc(-n3nc(C)cc3C)nc(-n3nc(C)cc3C)n2)cc1 [Compound 5d, 4,6-bis(3,5-dimethyl-1H-pyrazol-1-yl)-N-(4-methoxyphenyl)-1,3,5-triazin-2-amine]				74.68 ± 2.47	74.7
